This passage reports pest or weed control results from patent US10172358B2, “Thiopicolinamide compounds with fungicidal activity” (Dow AgroSciences LLC, priority 2016, dated 2019).

Experiment [1] relates to Zymoseptoria tritici. The experiment in a line: Fungicidal activity: leaf blotch of wheat (SEPTTR), disease control on wheat seedlings. In kind it is in vivo, Zymoseptoria tritici on wheat plants (variety Yuma). The note with it: for pest or weed control at 100 ppm: high volume application; for pest or weed control at 121.5 g/ha: low volume application, 121.5 g/H. The method, then:
Evaluation of Fungicidal Activity: Leaf Blotch of Wheat (Zymoseptoria Tritici; Bayer Code […]) Technical grades of materials were dissolved in acetone, which were then mixed with nine volumes of water (H2O) containing 110 ppm Triton X-100. The fungicide solutions were applied onto wheat seedlings using an automated booth sprayer to run-off. All sprayed plants were allowed to air dry prior to further handling. All fungicides were evaluated using the aforementioned method for their activity vs. all target diseases, unless stated otherwise. Wheat leaf blotch and brown rust activity were also evaluated using track spray applications, in which case the fungicides were formulated as EC formulations, containing 0.1% Trycol 5941 in the spray solutions. Wheat plants (variety Yuma) were grown from seed in a greenhouse in 50% mineral soil/50% soil-less Metro mix until the first leaf was fully emerged, with 7-10 seedlings per pot. These plants were inoculated with an aqueous spore suspension of Zymoseptoria tritici either prior to or after fungicide treatments. After inoculation the plants were kept in 100% relative humidity (one day in a dark dew chamber followed by two to three days in a lighted dew chamber at 20° C.) to permit spores to germinate and infect the leaf. The plants were then transferred to a greenhouse set at 20° C. for disease to develop. When disease symptoms were fully expressed on the 1st leaves of untreated plants, infection levels were assessed on a scale of 0 to 100 percent disease severity. Percent disease control was calculated using the ratio of disease severity on treated plants relative to untreated plants.

Experiment [2] concerns Puccinia triticina. The experiment is described as follows: Fungicidal activity: wheat brown rust (PUCCRT), disease control on wheat seedlings. The note with it: for pest or weed control at 100 ppm: high volume application; for pest or weed control at 121.5 g/ha: low volume application, 121.5 g/H. In kind it is in vivo, Puccinia triticina on wheat plants (variety Yuma). How it is done: Technical grades of materials were dissolved in acetone, which were then mixed with nine volumes of water (H2O) containing 110 ppm Triton X-100. The fungicide solutions were applied onto wheat seedlings using an automated booth sprayer to run-off. All sprayed plants were allowed to air dry prior to further handling. All fungicides were evaluated using the aforementioned method for their activity vs. all target diseases, unless stated otherwise. Wheat leaf blotch and brown rust activity were also evaluated using track spray applications, in which case the fungicides were formulated as EC formulations, containing 0.1% Trycol 5941 in the spray solutions. Evaluation of Fungicidal Activity: Wheat Brown Rust (Puccinia triticina; Synonym: Puccinia recondita f. Sp. Tritici; Bayer Code PUCCRT) Wheat plants (variety Yuma) were grown from seed in a greenhouse in 50% mineral soil/50% soil-less Metro mix until the first leaf was fully emerged, with 7-10 seedlings per pot. These plants were inoculated with an aqueous spore suspension of Puccinia triticina either prior to or after fungicide treatments. After inoculation the plants were kept in a dark dew room at 22° C. with 100% relative humidity overnight to permit spores to germinate and infect the leaf. The plants were then transferred to a greenhouse set at 24° C. for disease to develop. Fungicide formulation, application and disease assessment followed the procedures as described in the Example A. The results of the evalution are shown below in Table 4.

The mark [3] stands for this setting: 24 h, 1 day protectant, read-out: SEPTTR 1DP disease control, HV activity at 100 ppm.
Where [4] appears, read: 72 h, 3 day curative, read-out: SEPTTR 3DC disease control, HV activity at 100 ppm.
The mark [5] stands for this setting: 24 h, 1 day protectant, read-out: PUCCRT 1DP disease control, HV activity at 100 ppm.
Where [6] appears, read: 72 h, 3 day curative, read-out: PUCCRT 3DC disease control, HV activity at 100 ppm.
Setting [7] is: 24 h, 1 day protectant, read-out: SEPTTR 1DP disease control, LV activity at 121.5 g/H.
Setting [8] is: 24 h, 1 day protectant, read-out: PUCCRT 1DP disease control, LV activity at 121.5 g/H.
The mark [9] stands for this setting: 72 h, 3 day curative, read-out: PUCCRT 3DC disease control, LV activity at 121.5 g/H.

Structures are written as SMILES. Read-outs that look alike come from different tables or passages of the source. Where only a bound is given, the exact number is not on record here.

Regarding `COc1ccnc(C(=S)N[C@@H](C)C(=O)O[C@H](C(C)C)[C@H](C)Oc2ccc(C)cc2)c1O` [Compound 1], the pest or weed control at 100 ppm in experiment [1] (setting [3]) is at most 80%; in experiment [1] (setting [4]), at most 80%; in experiment [2] (setting [5]) it was over 80%; in experiment [2] (setting [6]), over 80%.
In the case of `COc1ccnc(C(=S)N[C@@H](C)C(=O)O[C@@H](C)C(c2ccc(Cl)cc2)c2ccc(Cl)cc2)c1O` [Compound 2], the pest or weed control at 100 ppm in experiment [1] (setting [3]), in experiment [1] (setting [4]) and in experiment [2] (setting [5]) was over 80% each time.
With `COc1ccnc(C(=S)N[C@@H](C)C(=O)O[C@@H](C)C(c2ccc(C)cc2C)c2ccc(C)cc2C)c1O` [Compound 3], the pest or weed control at 100 ppm in experiment [1] (setting [3]), in experiment [1] (setting [4]) and in experiment [2] (setting [5]) was over 80% throughout.
Regarding `COc1ccnc(C(=S)N[C@@H](C)C(=O)O[C@@H](C)[C@@H](c2ccccc2)c2ccc(F)cc2)c1O` [Compound 4], the pest or weed control at 100 ppm in experiment [1] (setting [3]), in experiment [1] (setting [4]) and in experiment [2] (setting [5]) was over 80% throughout.
Regarding `COc1ccc(C(c2ccc(OC)cc2F)[C@H](C)OC(=O)[C@H](C)NC(=S)c2nccc(OC)c2O)c(F)c1` [Compound 5], the pest or weed control at 100 ppm in experiment [1] (setting [3]), in experiment [1] (setting [4]) and in experiment [2] (setting [5]) was over 80% each time.
Take `COc1ccnc(C(=S)N[C@@H](C)C(=O)O[C@@H](C)[C@@H](c2ccc(C)cc2)c2ccc(F)cc2C)c1O` [Compound 6]: the pest or weed control at 100 ppm in experiment [1] (setting [3]) was over 80%; in experiment [1] (setting [4]), over 80%; in experiment [2] (setting [5]), over 80%; in experiment [2] (setting [6]), at most 80%.
As to `COc1ccnc(C(=S)N[C@@H](C)C(=O)O[C@H](C)C(c2ccc(F)cc2)c2ccc(F)cc2)c1O` [Compound 7], the pest or weed control at 100 ppm in experiment [1] (setting [3]) and in experiment [2] (setting [5]) was at most 80% throughout.
With `CCCCC[C@@H](OC(=O)[C@H](C)NC(=S)c1nccc(OC)c1O)[C@H](C)Oc1ccccc1` [Compound 8], the figures for the pest or weed control at 100 ppm in experiment [1] (setting [3]), in experiment [1] (setting [4]) and in experiment [2] (setting [5]) were at most 80%, at most 80% and over 80%, respectively.
As to `COc1ccnc(C(=S)N[C@@H](C)C(=O)O[C@@H](C)[C@H](Oc2ccc(Cl)cc2Cl)c2ccccc2)c1O` [Compound 9], the pest or weed control at 100 ppm in experiment [1] (setting [3]), in experiment [1] (setting [4]) and in experiment [2] (setting [5]) was over 80% throughout.
As for `CCCCC[C@H](OC(=O)[C@H](C)NC(=S)c1nccc(OC)c1O)[C@@H](C)Oc1ccccc1` [Compound 10], the pest or weed control at 100 ppm in experiment [2] (setting [5]) is at most 80%.
Regarding `COc1ccc(O[C@@H](C)[C@H](OC(=O)[C@H](C)NC(=S)c2nccc(OC)c2O)C(C)C)cc1` [Compound 11], the pest or weed control at 100 ppm was over 80% in experiment [1] (setting [3]), at most 80% in experiment [1] (setting [4]), over 80% in experiment [2] (setting [5]) and over 80% in experiment [2] (setting [6]).
As to `COc1cc(F)ccc1[C@H](c1ccccc1)[C@H](C)OC(=O)[C@H](C)NC(=S)c1nccc(OC)c1O` [Compound 12], the pest or weed control at 100 ppm in experiment [1] (setting [3]) was over 80%; in experiment [1] (setting [4]), at most 80%; in experiment [2] (setting [5]), over 80%; in experiment [2] (setting [6]), at most 80%.
For `COc1ccccc1C(c1ccccc1OC)[C@H](C)OC(=O)[C@H](C)NC(=S)c1nccc(OC)c1O` [Compound 13], the pest or weed control at 100 ppm in experiment [1] (setting [3]) is over 80%; in experiment [1] (setting [4]) it was over 80%; in experiment [2] (setting [5]), over 80%; in experiment [2] (setting [6]), at most 80%.
As for `COc1cc(Cl)ccc1C(c1ccc(Cl)cc1OC)[C@H](C)OC(=O)[C@H](C)NC(=S)c1nccc(OC)c1O` [Compound 14], the pest or weed control at 100 ppm was over 80% in experiment [1] (setting [3]), over 80% in experiment [1] (setting [4]), over 80% in experiment [2] (setting [5]) and at most 80% in experiment [2] (setting [6]).
As to `COc1ccnc(C(=S)N[C@H](C)C(=O)O[C@@H](C)C(c2ccc(F)cc2)c2ccc(F)cc2)c1O` [Compound 15], the pest or weed control at 100 ppm in experiment [1] (setting [3]) was over 80%.
Turning to `C=CC[C@@H](Oc1ccccc1)[C@H](C)OC(=O)[C@H](C)NC(=S)c1nccc(OC)c1O` [Compound 16], the pest or weed control at 100 ppm was over 80% in experiment [1] (setting [3]), at most 80% in experiment [1] (setting [4]), over 80% in experiment [2] (setting [5]) and over 80% in experiment [2] (setting [6]).
As for `COc1ccnc(C(=S)N[C@@H](C)C(=O)O[C@@H](C)[C@H](Oc2ccc(Cl)cc2)C(C)C)c1O` [Compound 17], the pest or weed control at 100 ppm in experiment [1] (setting [3]) is at most 80%; in experiment [2] (setting [5]) it was over 80%.
With `COc1cc(F)ccc1[C@H](c1ccc(C)cc1)[C@H](C)OC(=O)[C@H](C)NC(=S)c1nccc(OC)c1O` [Compound 18], the pest or weed control at 100 ppm in experiment [1] (setting [3]), in experiment [1] (setting [4]), in experiment [2] (setting [5]) and in experiment [2] (setting [6]) was over 80% throughout.
Take `COc1ccnc(C(=S)N[C@@H](C)C(=O)O[C@H](C(C)C)[C@H](C)Oc2ccccc2)c1O` [Compound 19]: the pest or weed control at 100 ppm in experiment [1] (setting [3]), in experiment [2] (setting [5]) and in experiment [2] (setting [6]) was over 80% throughout.
Take `COc1ccnc(C(=S)N[C@@H](C)C(=O)O[C@@H](C)C(c2ccc(C)cc2)c2ccc(C)cc2)c1O` [Compound 20]: the pest or weed control at 100 ppm in experiment [1] (setting [3]) was over 80%; in experiment [1] (setting [4]) it was over 80%; in experiment [2] (setting [5]) it was over 80%; in experiment [2] (setting [6]), at most 80%.
`COc1ccnc(C(=S)N[C@@H](C)C(=O)O[C@H](CC(C)C)[C@H](C)Oc2ccccc2)c1O` [Compound 21]: the pest or weed control at 100 ppm in experiment [1] (setting [3]) and in experiment [1] (setting [4]) was at most 80% throughout.
As for `COc1ccnc(C(=S)N[C@@H](C)C(=O)O[C@@H](C)[C@H](Oc2ccccc2Cl)c2ccccc2)c1O` [Compound 22, (1R,2S)-1-(2-chlorophenoxy)-1-phenylpropan-2-yl (3-hydroxy-4-methoxypyridine-2-carbonothioyl)-L-alaninate], the pest or weed control at 100 ppm in experiment [1] (setting [3]) was over 80%; in experiment [1] (setting [4]), at most 80%; in experiment [2] (setting [5]), over 80%; in experiment [2] (setting [6]), at most 80%.
Regarding `CCC[C@H](OC(=O)[C@H](C)NC(=S)c1nccc(OC)c1O)[C@@H](C)Oc1ccccc1` [Compound 34], in experiment [1] (setting [3]), the pest or weed control at 100 ppm is at most 80%.
`COc1ccnc(C(=S)N[C@@H](C)C(=O)O[C@@H](C)C(c2ccc(F)cc2)c2ccc(F)cc2)c1O` [Compound 39]: the pest or weed control at 100 ppm in experiment [1] (setting [3]) was over 80%; in experiment [1] (setting [4]), over 80%; in experiment [2] (setting [5]) it was at most 80%; in experiment [2] (setting [6]) it was at most 80%.
Take `CCCCC[C@@H](OC(=O)[C@H](C)NC(=S)c1nccc(OC)c1CC(C)=O)[C@H](C)Oc1ccccc1` [Compound 41]: the pest or weed control at 121.5 g/ha in experiment [1] (setting [7]) was over 80%; in experiment [1] (72 h, 3 day curative, read-out: SEPTTR 3DC disease control, LV activity at 121.5 g/H) it was over 80%; in experiment [2] (setting [8]), over 80%; in experiment [2] (setting [9]) it was over 80%.
With `CCCCC[C@H](OC(=O)[C@H](C)NC(=S)c1nccc(OC)c1OC(C)=O)[C@@H](C)Oc1ccccc1` [Compound 42], the pest or weed control at 121.5 g/ha in experiment [1] (setting [7]), in experiment [2] (setting [8]) and in experiment [2] (setting [9]) was at most 80% each time.
Turning to `COc1ccnc(C(=S)N[C@@H](C)C(=O)O[C@H](C)C(c2ccc(F)cc2)c2ccc(F)cc2)c1OC(C)=O` [Compound 55], the pest or weed control at 121.5 g/ha in experiment [1] (setting [7]) is at most 80%.
